± gives the standard deviation of the averaged measurements.
Columns and labels:
Assay in all cases: CTG-3D luminescence at 96 h relative to day-0 seeding control (ratio to day 0); higher = more growth / less cytotoxicity
MDA-MB-231 = test system: MDA-MB-231
Experimental: (§1)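 PDX-derived breast cancer organoids (PDxO) in 384-well Matrigel plates, 8-point dose (0.000000625-100 uM), 96 h at 37 C; CellTiter-Glo 3D luminescence normalised to the day-0 seeding control (mean of 4 technical replicates over mean of 4 day-0 wells).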

HCI-012 = test system: HCI-012 (organoid from a breast cancer xenograft)
Experimental: as §1

HCI-027 = test system: HCI-027 (organoid from a triple-negative breast cancer xenograft)
Experimental: as §1

HCI-016 = test system: HCI-016 (organoid from a triple-negative breast cancer xenograft)
Experimental: as §1

HCI-023 = test system: HCI-023 (organoid from a triple-negative breast cancer xenograft)
Experimental: as §1

O=c1[nH]cc(F)c(=O)[nH]1 [5-fluorouracil]
MDA-MB-231
Details	CTG-3D luminescence at 96 h
12.5 pM	4.33 ± 1.4
0.00025 µM	4.19 ± 1.4
0.005 µM	4.49 ± 1.5
0.1 µM	4.31 ± 1.3
1 µM	4.4 ± 1.4
10 µM	4.03 ± 1.1
100 µM	3.35 ± 0.75
625 fM	4.34 ± 1.3

CTG-3D luminescence at 96 h
Details	12.5 pM	0.00025 µM	0.005 µM	0.1 µM	1 µM	10 µM	100 µM	625 fM
HCI-012, days in culture: 143	2.31	2.12	1.8	2.12	2.07	1.71	0.413	1.96
HCI-012, days in culture: 162	2.26	2.44	1.98	2.86	1.98	2.16	0.425	2.74
HCI-012, days in culture: 201	2.32	2.31	1.56	1.69	2.12	1.21	1.08	1.85
HCI-016, days in culture: 153	3.47	1.65	2.39	2.02	2.17	1.8	1.21	3.05
HCI-016, days in culture: 172	2.33	1.93	1.51	1.52	1.52	1.1	1.12	1.92
HCI-016, days in culture: 190	1.67	1.39	1.63	1.35	1.16	1.1	1.11	1.3
HCI-016, days in culture: 199	1.49	1.49	1.44	1.47	1.68	1.21	1.18	1.73
HCI-023, days in culture: 111	1.56	1.34	0.973	1.17	0.928	0.875	0.571	1.57
HCI-023, days in culture: 128	1.51 ± 0.11	1.68 ± 0.4	1.54 ± 0.13	1.89 ± 0.27	1.4 ± 0.022	1.92 ± 0.27	1.01 ± 0.18	1.58 ± 0.063
HCI-027, days in culture: 176	2.05	1.56	2.56	1.65	2.29	0.753	0.527	1.98
HCI-027, days in culture: 194	1.69	1.22	1.34	1.6	1.41	1.29	0.526	1.51
HCI-027, days in culture: 201	1.96	1.99	2.23	1.8	1.26	1.05	0.398	1.53
